ChEMBL document CHEMBL1201862, “PubChem BioAssay data set” (2004)
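Dose response: 5 concentrations. Exposure: 48 h. Format: 96-well plates. Endpoint: linear interpolation; highest concentration if not reached. The concentration for 50% growth inhibition is given as GI50.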 Activity calls are given as the source filed them. No stated cut-off is given here; in the data, active = GI50 up to about 1.1 µM and inactive = higher.

How the values were obtained:
Test in all cases: NCI anticancer screen, dose series, 48 h
[1] = system: 786-0
[2] = system: A498
[3] = system: A549
[4] = system: ACHN
[5] = system: HCC 2998
[6] = system: HCT-15
[7] = system: NCI-H23
[8] = system: OVCAR-8
[9] = system: RXF 393
[10] = system: SF-539
[11] = system: SK-MEL-5
[12] = system: TK-10
[13] = system: U-251
[14] = system: UO-31
[15] = system: CAKI-1
[16] = system: SR

Row | SMILES | GI50 [1] | GI50 [2] | GI50 [3] | GI50 [4] | GI50 [5] | GI50 [6] | GI50 [7] | GI50 [8] | GI50 [9] | GI50 [10] | GI50 [11] | GI50 [12] | GI50 [13] | GI50 [14] | GI50 [15] | GI50 [16]
1 | C=CCn1c(=O)n(CC=C)c(=O)n(CC=C)c1=O | > 100 µM (inactive) | > 100 µM (inactive) | > 100 µM (inactive) | > 100 µM (inactive) | > 100 µM (inactive) | > 100 µM | > 100 µM (inactive) | > 100 µM (inactive) | > 100 µM (inactive) | > 100 µM (inactive) | > 100 µM (inactive) | > 100 µM (inactive) | > 100 µM (inactive) | > 100 µM (inactive) | – | –
2 | CC1(C2CCC3(C)OC3C2)CO1 (stereo not drawn) | > 100 µM (inactive) | – | > 100 µM (inactive) | > 100 µM (inactive) | > 100 µM (inactive) | – | > 100 µM (inactive) | > 100 µM (inactive) | > 100 µM (inactive) | > 100 µM (inactive) | > 100 µM (inactive) | > 100 µM (inactive) | > 100 µM (inactive) | > 100 µM (inactive) | > 100 µM (inactive) | > 100 µM (inactive)
3 | COc1ccc2ccccc2c1CN1CCOCCOCCN(Cc2c(OC)ccc3ccccc23)CCOCCOCC1 | 31.8 µM (inactive) | > 83.4 µM (inactive) | 98.2 µM (inactive) | > 100 µM (inactive) | 14.8 µM (inactive) | > 91 µM | > 75.3 µM (inactive) | > 100 µM (inactive) | > 100 µM (inactive) | > 45.3 µM (inactive) | > 38.9 µM (inactive) | > 100 µM (inactive) | > 93.3 µM (inactive) | > 100 µM (inactive) | > 100 µM (inactive) | 0.514 µM (active)
4 | CC(C)N(C(=O)C12C3C4C5(C(=O)O)C(C1C35I)C42C(=O)O)C(C)C (stereo not drawn) | > 100 µM (inactive) | > 100 µM (inactive) | > 100 µM (inactive) | > 100 µM (inactive) | > 100 µM (inactive) | > 100 µM | > 100 µM (inactive) | > 100 µM (inactive) | – | > 100 µM (inactive) | > 100 µM (inactive) | > 100 µM (inactive) | > 100 µM (inactive) | > 100 µM (inactive) | – | > 100 µM (inactive)
5 | COC(=O)c1nn(C(=N)c2ccc(Cl)cc2)c2c1CCCCC2 | > 100 µM (inactive) | > 100 µM (inactive) | > 100 µM (inactive) | > 100 µM (inactive) | > 100 µM (inactive) | > 100 µM | > 100 µM (inactive) | – | > 100 µM (inactive) | > 100 µM (inactive) | > 100 µM (inactive) | > 100 µM (inactive) | > 100 µM (inactive) | > 100 µM (inactive) | > 100 µM (inactive) | > 100 µM (inactive)
6 | O=C(/C=C/c1ccc([N+](=O)[O-])cc1)c1ccc(NCc2nc3ccccc3[nH]2)cc1 | 3.13 µM (inactive) | 7.24 µM (inactive) | – | 10.5 µM (inactive) | 2.61 µM (inactive) | 2.93 µM | 3.75 µM (inactive) | 2.68 µM (inactive) | – | 2.84 µM (inactive) | 5.18 µM (inactive) | 5.96 µM (inactive) | 1.75 µM (inactive) | 4.98 µM (inactive) | 6.52 µM (inactive) | 3.34 µM (inactive)
7 | CCOP(=S)(OCC)Oc1ccc2c(c1)OC(=O)C1(Cl)C2(C)C2(Cl)C(=O)Oc3cc(OP(=S)(OCC)OCC)ccc3C12C (stereo not drawn) | 21.1 µM (inactive) | 25.5 µM (inactive) | 25.5 µM (inactive) | 22.4 µM (inactive) | 17.7 µM (inactive) | 20.4 µM | > 10 µM (inactive) | 16.3 µM (inactive) | 11.8 µM (inactive) | 11.1 µM (inactive) | 17 µM (inactive) | 25.5 µM (inactive) | 6.35 µM (inactive) | 17.9 µM (inactive) | 19.8 µM (inactive) | –
8 | COC1=NCc2ccccc2-c2ccccc21 | > 100 µM (inactive) | – | > 100 µM (inactive) | > 100 µM (inactive) | – | > 100 µM | > 100 µM (inactive) | > 100 µM (inactive) | > 100 µM (inactive) | > 100 µM (inactive) | > 100 µM (inactive) | > 100 µM (inactive) | > 100 µM (inactive) | 20.2 µM (inactive) | – | –
9 | COC(=O)C1=C(c2cc(OC)c(OC)c(OC)c2)OC(c2ccc(OC)c(OC)c2)C1 (stereo not drawn) | 73.3 µM (inactive) | 22.6 µM (inactive) | 46.8 µM (inactive) | 51.2 µM (inactive) | 54.7 µM (inactive) | 43.5 µM | 78.2 µM (inactive) | 47.9 µM (inactive) | 35.9 µM (inactive) | 42.9 µM (inactive) | 29.7 µM (inactive) | 54.3 µM (inactive) | 42 µM (inactive) | 38.9 µM (inactive) | > 100 µM (inactive) | 51.6 µM (inactive)
10 | CN(C)C(=S)/N=c1\ss/c(=N\S(=O)(=O)c2ccccc2)n1N(C)C | 45 µM (inactive) | > 100 µM (inactive) | > 100 µM (inactive) | > 100 µM (inactive) | > 100 µM (inactive) | > 100 µM | – | > 100 µM (inactive) | 9.91 µM (inactive) | > 100 µM (inactive) | > 100 µM (inactive) | > 100 µM (inactive) | > 100 µM (inactive) | > 100 µM (inactive) | > 100 µM (inactive) | 41.2 µM (inactive)
11 | Oc1ccc2ccccc2c1/N=N/c1ccsc1 | > 100 µM (inactive) | > 100 µM (inactive) | > 100 µM (inactive) | > 100 µM (inactive) | > 100 µM (inactive) | 76.7 µM | > 100 µM (inactive) | > 100 µM (inactive) | 53.3 µM (inactive) | > 100 µM (inactive) | > 100 µM (inactive) | > 100 µM (inactive) | > 100 µM (inactive) | > 100 µM (inactive) | > 100 µM (inactive) | > 100 µM (inactive)
12 | CN(C)NC(=O)NC12CC3CC(CC(C3)C1)C2 | > 100 µM (inactive) | > 100 µM (inactive) | > 100 µM (inactive) | > 100 µM (inactive) | – | > 100 µM | > 100 µM (inactive) | > 100 µM (inactive) | > 10 µM (inactive) | > 100 µM (inactive) | > 100 µM (inactive) | > 10 µM (inactive) | > 100 µM (inactive) | > 100 µM (inactive) | > 100 µM (inactive) | > 100 µM (inactive)
13 | Cc1cc2c(cn1)C(=O)OCC2 | > 100 µM (inactive) | > 100 µM (inactive) | > 100 µM (inactive) | > 100 µM (inactive) | > 100 µM (inactive) | – | > 100 µM (inactive) | > 100 µM (inactive) | > 100 µM (inactive) | > 100 µM (inactive) | – | > 100 µM (inactive) | > 100 µM (inactive) | > 100 µM (inactive) | – | > 100 µM (inactive)
14 | COc1cccc(/C=N/[N-]C(=S)Nc2ccccc2)c1[O-].O.[Zn+2] | > 100 µM (inactive) | – | 34.1 µM (inactive) | 39.8 µM (inactive) | > 100 µM (inactive) | 31.6 µM | 37.7 µM (inactive) | 35.5 µM (inactive) | 35.9 µM (inactive) | 66.4 µM (inactive) | 61.1 µM (inactive) | > 100 µM (inactive) | 60.4 µM (inactive) | 33.6 µM (inactive) | 87.7 µM (inactive) | –
